Test results published in PubChem BioAssay (NCI).
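Each compound was tested at five concentrations against cells in 96-well plates for 48 hours. GI50 marks 50% less growth. TGI marks complete inhibition of growth.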

Columns and labels:
Experiment in all cases: NCI-60 cell line screen, 48 h
MDA-MB-231 breast = tested on: MDA-MB-231 breast
786-0 renal = tested on: 786-0 renal
NCI-H23 lung = tested on: NCI-H23 lung
NCI-H226 lung = tested on: NCI-H226 lung
CCRF-CEM leukemia = tested on: CCRF-CEM leukemia
HCT-116 colon = tested on: HCT-116 colon
SK-MEL-5 melanoma = tested on: SK-MEL-5 melanoma
SK-MEL-28 melanoma = tested on: SK-MEL-28 melanoma
TK-10 renal = tested on: TK-10 renal
T-47D breast = tested on: T-47D breast
DU-145 prostate = tested on: DU-145 prostate
UO-31 renal = tested on: UO-31 renal
OVCAR-4 ovarian = tested on: OVCAR-4 ovarian
IGROV1 ovarian = tested on: IGROV1 ovarian
OVCAR-8 ovarian = tested on: OVCAR-8 ovarian
SNB-75 CNS = tested on: SNB-75 CNS
EKVX NSCLC = tested on: EKVX NSCLC
HT29 colon = tested on: HT29 colon
SR leukemia = tested on: SR leukemia
A498 renal = tested on: A498 renal
SF-295 CNS = tested on: SF-295 CNS
SN12C renal = tested on: SN12C renal
LOX IMVI melanoma = tested on: LOX IMVI melanoma
HCC-2998 colon = tested on: HCC-2998 colon
SF-539 CNS = tested on: SF-539 CNS
SK-OV-3 ovarian = tested on: SK-OV-3 ovarian
HOP-62 NSCLC = tested on: HOP-62 NSCLC
NCI-H522 lung = tested on: NCI-H522 lung
SW-620 colon = tested on: SW-620 colon
SK-MEL-2 melanoma = tested on: SK-MEL-2 melanoma
M14 melanoma = tested on: M14 melanoma
SNB-19 CNS = tested on: SNB-19 CNS
BT-549 breast = tested on: BT-549 breast
HS 578T breast = tested on: HS 578T breast
ACHN renal = tested on: ACHN renal
RXF 393 renal = tested on: RXF 393 renal
MCF7 breast = tested on: MCF7 breast
NCI-H460 lung = tested on: NCI-H460 lung
OVCAR-3 ovarian = tested on: OVCAR-3 ovarian
A549 NSCLC = tested on: A549 NSCLC
U251 CNS = tested on: U251 CNS
KM12 colon = tested on: KM12 colon
UACC-62 melanoma = tested on: UACC-62 melanoma
MOLT-4 leukemia = tested on: MOLT-4 leukemia
HOP-92 NSCLC = tested on: HOP-92 NSCLC
HL-60(TB) leukemia = tested on: HL-60(TB) leukemia
PC-3 prostate = tested on: PC-3 prostate
NCI/ADR-RES ovarian = tested on: NCI/ADR-RES ovarian
SF-268 CNS = tested on: SF-268 CNS
OVCAR-5 ovarian = tested on: OVCAR-5 ovarian
HCT-15 colon = tested on: HCT-15 colon

## CCOC(=O)c1cc(C(=O)c2cc(OC)cc(OC)c2)n2nc(C)ccc12
MDA-MB-231 breast
  GI50: 1700 nM
  TGI: > 100000 nM
786-0 renal
  GI50: 523 nM
  TGI: > 100000 nM
NCI-H23 lung
  GI50: 1290 nM
  TGI: > 100000 nM
NCI-H226 lung
  GI50: > 100000 nM
  TGI: > 100000 nM
CCRF-CEM leukemia
  GI50: 348 nM
  TGI: > 100000 nM
HCT-116 colon
  GI50: 331 nM
  TGI: > 100000 nM
SK-MEL-5 melanoma
  GI50: 276 nM
  TGI: > 100000 nM
SK-MEL-28 melanoma
  GI50: > 100000 nM
  TGI: > 100000 nM
TK-10 renal
  GI50: > 100000 nM
  TGI: > 100000 nM
T-47D breast
  GI50: 501 nM
  TGI: > 100000 nM
DU-145 prostate
  GI50: 906 nM
  TGI: > 100000 nM
UO-31 renal
  GI50: 698 nM
  TGI: > 100000 nM
OVCAR-4 ovarian
  GI50: 1450 nM
  TGI: > 100000 nM
IGROV1 ovarian
  GI50: 943 nM
  TGI: > 100000 nM
OVCAR-8 ovarian
  GI50: 1090 nM
  TGI: > 100000 nM
SNB-75 CNS
  GI50: 384 nM
  TGI: > 100000 nM
EKVX NSCLC
  GI50: 975 nM
  TGI: > 100000 nM
HT29 colon
  GI50: 401 nM
  TGI: > 100000 nM
SR leukemia
  GI50: 75.9 nM
  TGI: > 100000 nM
A498 renal
  GI50: 388 nM
  TGI: > 100000 nM
SF-295 CNS
  GI50: 311 nM
  TGI: 38300 nM
SN12C renal
  GI50: 692 nM
  TGI: > 100000 nM
LOX IMVI melanoma
  GI50: 493 nM
  TGI: > 100000 nM
HCC-2998 colon
  GI50: 3340 nM
  TGI: > 100000 nM
SF-539 CNS
  GI50: 349 nM
  TGI: 3020 nM
SK-OV-3 ovarian
  GI50: 878 nM
  TGI: > 100000 nM
HOP-62 NSCLC
  GI50: 691 nM
  TGI: > 100000 nM
NCI-H522 lung
  GI50: 303 nM
  TGI: > 100000 nM
SW-620 colon
  GI50: 280 nM
  TGI: > 100000 nM
SK-MEL-2 melanoma
  GI50: 494 nM
  TGI: > 100000 nM
M14 melanoma
  GI50: 251 nM
  TGI: > 100000 nM
SNB-19 CNS
  GI50: 752 nM
  TGI: > 100000 nM
BT-549 breast
  GI50: 1990 nM
  TGI: > 100000 nM
HS 578T breast
  GI50: 284 nM
  TGI: > 100000 nM
ACHN renal
  GI50: 731 nM
  TGI: > 100000 nM
RXF 393 renal
  GI50: 239 nM
  TGI: 3160 nM
MCF7 breast
  GI50: 313 nM
  TGI: > 100000 nM
NCI-H460 lung
  GI50: 365 nM
  TGI: > 100000 nM
OVCAR-3 ovarian
  GI50: 289 nM
  TGI: 2110 nM
A549 NSCLC
  GI50: 766 nM
  TGI: > 100000 nM
U251 CNS
  GI50: 549 nM
  TGI: > 100000 nM
KM12 colon
  GI50: 254 nM
  TGI: > 100000 nM
UACC-62 melanoma
  GI50: 477 nM
  TGI: > 100000 nM
MOLT-4 leukemia
  GI50: 527 nM
  TGI: > 100000 nM
HOP-92 NSCLC
  GI50: 446 nM
  TGI: > 100000 nM
HL-60(TB) leukemia
  GI50: 248 nM
  TGI: 797 nM
PC-3 prostate
  GI50: 317 nM
  TGI: > 100000 nM
NCI/ADR-RES ovarian
  GI50: 308 nM
  TGI: 14800 nM
SF-268 CNS
  GI50: 676 nM
  TGI: > 100000 nM
OVCAR-5 ovarian
  GI50: 2700 nM
  TGI: > 100000 nM
HCT-15 colon
  GI50: 280 nM
  TGI: > 100000 nM
